Data as given in PubChem BioAssay (NCI).
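1) Cells in 96-well plates. 2) Compound, 48 h, 5 concentrations. 3) Linear interpolation between surrounding doses. 4) Unreached endpoint = highest concentration. Here, GI50 denotes the concentration required for 50% inhibition of growth. The concentration for full growth arrest is given as TGI.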

Assays:
Experiment in all cases: NCI anticancer screen, dose series, 48 h
SK-MEL-28 melanoma = tested on: SK-MEL-28 melanoma
NCI/ADR-RES ovarian = tested on: NCI/ADR-RES ovarian
KM12 colon = tested on: KM12 colon
NCI-H460 lung = tested on: NCI-H460 lung
NCI-H23 lung = tested on: NCI-H23 lung
HCT-116 colon = tested on: HCT-116 colon
A498 renal = tested on: A498 renal
CCRF-CEM leukemia = tested on: CCRF-CEM leukemia
HT29 colon = tested on: HT29 colon
OVCAR-3 ovarian = tested on: OVCAR-3 ovarian
MOLT-4 leukemia = tested on: MOLT-4 leukemia
K-562 leukemia = tested on: K-562 leukemia
SNB-75 CNS = tested on: SNB-75 CNS
U251 CNS = tested on: U251 CNS
HCT-15 colon = tested on: HCT-15 colon
PC-3 prostate = tested on: PC-3 prostate
LOX IMVI melanoma = tested on: LOX IMVI melanoma
RXF 393 renal = tested on: RXF 393 renal
RPMI-8226 leukemia = tested on: RPMI-8226 leukemia
OVCAR-4 ovarian = tested on: OVCAR-4 ovarian
SK-MEL-5 melanoma = tested on: SK-MEL-5 melanoma
SK-MEL-2 melanoma = tested on: SK-MEL-2 melanoma
SF-268 CNS = tested on: SF-268 CNS
HOP-92 NSCLC = tested on: HOP-92 NSCLC
HS 578T breast = tested on: HS 578T breast
NCI-H226 lung = tested on: NCI-H226 lung
UO-31 renal = tested on: UO-31 renal
SK-OV-3 ovarian = tested on: SK-OV-3 ovarian
IGROV1 ovarian = tested on: IGROV1 ovarian
UACC-257 melanoma = tested on: UACC-257 melanoma
T-47D breast = tested on: T-47D breast
SF-539 CNS = tested on: SF-539 CNS
SN12C renal = tested on: SN12C renal
MDA-MB-435 = tested on: MDA-MB-435
M14 melanoma = tested on: M14 melanoma
UACC-62 melanoma = tested on: UACC-62 melanoma
OVCAR-5 ovarian = tested on: OVCAR-5 ovarian
A549 NSCLC = tested on: A549 NSCLC
HOP-62 NSCLC = tested on: HOP-62 NSCLC
SW-620 colon = tested on: SW-620 colon
EKVX NSCLC = tested on: EKVX NSCLC
786-0 renal = tested on: 786-0 renal
MDA-MB-231 breast = tested on: MDA-MB-231 breast
DU-145 prostate = tested on: DU-145 prostate
SNB-19 CNS = tested on: SNB-19 CNS
NCI-H522 lung = tested on: NCI-H522 lung
ACHN renal = tested on: ACHN renal
OVCAR-8 ovarian = tested on: OVCAR-8 ovarian
COLO 205 colon = tested on: COLO 205 colon
TK-10 renal = tested on: TK-10 renal
SF-295 CNS = tested on: SF-295 CNS
MCF7 breast = tested on: MCF7 breast
BT-549 breast = tested on: BT-549 breast
CAKI-1 renal = tested on: CAKI-1 renal

For `COc1cccc(OC(=O)c2ccc(C(F)(F)F)nc2Nc2cc(Cl)ccc2C)c1`, the GI50 (SK-MEL-28 melanoma) was 9.26 µM, the TGI (SK-MEL-28 melanoma) was greater than 100 µM and the GI50 (NCI/ADR-RES ovarian) was 19.6 µM. It also gave a TGI (NCI/ADR-RES ovarian) greater than 100 µM, a GI50 (KM12 colon) of 20.6 µM and a TGI (KM12 colon) of 50 µM. It also gave a GI50 (NCI-H460 lung) of 2.92 µM, a TGI (NCI-H460 lung) of 15.4 µM and a GI50 (NCI-H23 lung) of 20.2 µM. It also gave a TGI (NCI-H23 lung) of 49.5 µM, a GI50 (HCT-116 colon) of 16.9 µM and a TGI (HCT-116 colon) of 55.8 µM. For the same compound, the GI50 (A498 renal) was 4.19 µM, the TGI (A498 renal) was 20.9 µM and the GI50 (CCRF-CEM leukemia) was 2.12 µM. It also gave a TGI (CCRF-CEM leukemia) of 5.13 µM, a GI50 (HT29 colon) of 4.28 µM and a TGI (HT29 colon) greater than 100 µM. It also gave a GI50 (OVCAR-3 ovarian) of 22.9 µM, a TGI (OVCAR-3 ovarian) of 46.8 µM and a GI50 (MOLT-4 leukemia) of 3.11 µM. For the same compound, the TGI (MOLT-4 leukemia) was 7.99 µM, the GI50 (K-562 leukemia) was 3.13 µM and the TGI (K-562 leukemia) was 9.36 µM. The GI50 (SNB-75 CNS) was 9.04 µM, the TGI (SNB-75 CNS) was greater than 100 µM and the GI50 (U251 CNS) was 8.13 µM. For the same compound, the TGI (U251 CNS) was greater than 100 µM, the GI50 (HCT-15 colon) was 4.33 µM and the TGI (HCT-15 colon) was greater than 100 µM. It also gave a GI50 (PC-3 prostate) of 4.47 µM, a TGI (PC-3 prostate) greater than 100 µM and a GI50 (LOX IMVI melanoma) of 3.68 µM. It also gave a TGI (LOX IMVI melanoma) of 23.8 µM, a GI50 (RXF 393 renal) of 0.245 µM and a TGI (RXF 393 renal) of 0.987 µM. For the same compound, the GI50 (RPMI-8226 leukemia) was 4.2 µM, the TGI (RPMI-8226 leukemia) was 23.2 µM and the GI50 (OVCAR-4 ovarian) was greater than 100 µM. It also gave a TGI (OVCAR-4 ovarian) greater than 100 µM, a GI50 (SK-MEL-5 melanoma) of 2.63 µM and a TGI (SK-MEL-5 melanoma) of 12.5 µM. It also gave a GI50 (SK-MEL-2 melanoma) of 12.9 µM, a TGI (SK-MEL-2 melanoma) of 50.2 µM and a GI50 (SF-268 CNS) of 4.38 µM. The TGI (SF-268 CNS) was greater than 100 µM, the GI50 (HOP-92 NSCLC) was 1.63 µM and the TGI (HOP-92 NSCLC) was 6.98 µM. It also gave a GI50 (HS 578T breast) of 1.23 µM, a TGI (HS 578T breast) of 4.79 µM and a GI50 (NCI-H226 lung) of 4.88 µM. For the same compound, the TGI (NCI-H226 lung) was 31.5 µM, the GI50 (UO-31 renal) was 5.8 µM and the TGI (UO-31 renal) was greater than 100 µM. It also gave a GI50 (SK-OV-3 ovarian) of 11.1 µM, a TGI (SK-OV-3 ovarian) of 80.7 µM and a GI50 (IGROV1 ovarian) of 8.35 µM. The TGI (IGROV1 ovarian) was greater than 100 µM, the GI50 (UACC-257 melanoma) was 13.3 µM and the TGI (UACC-257 melanoma) was 54.8 µM. The GI50 (T-47D breast) was 2.82 µM, the TGI (T-47D breast) was greater than 100 µM and the GI50 (SF-539 CNS) was 8.75 µM. The TGI (SF-539 CNS) was 32 µM, the GI50 (SN12C renal) was 29.2 µM and the TGI (SN12C renal) was greater than 100 µM. It also gave a GI50 (MDA-MB-435) of 24.2 µM, a TGI (MDA-MB-435) of 58.2 µM and a GI50 (M14 melanoma) of 19.3 µM. It also gave a TGI (M14 melanoma) of 56.6 µM, a GI50 (UACC-62 melanoma) of 3.3 µM and a TGI (UACC-62 melanoma) of 20 µM. For the same compound, the GI50 (OVCAR-5 ovarian) was 15.1 µM, the TGI (OVCAR-5 ovarian) was 47.4 µM and the GI50 (A549 NSCLC) was 6.1 µM. For the same compound, the TGI (A549 NSCLC) was greater than 100 µM, the GI50 (HOP-62 NSCLC) was 15.6 µM and the TGI (HOP-62 NSCLC) was 36.1 µM. For the same compound, the GI50 (SW-620 colon) was 5.31 µM, the TGI (SW-620 colon) was 50.7 µM and the GI50 (EKVX NSCLC) was 6.6 µM. It also gave a TGI (EKVX NSCLC) of 39.3 µM, a GI50 (786-0 renal) of 10.7 µM and a TGI (786-0 renal) of 24.5 µM. For the same compound, the GI50 (MDA-MB-231 breast) was 2.76 µM, the TGI (MDA-MB-231 breast) was 15.7 µM and the GI50 (DU-145 prostate) was 9.01 µM. It also gave a TGI (DU-145 prostate) greater than 100 µM, a GI50 (SNB-19 CNS) greater than 100 µM and a TGI (SNB-19 CNS) greater than 100 µM. For the same compound, the GI50 (NCI-H522 lung) was 10 µM, the TGI (NCI-H522 lung) was 71.3 µM and the GI50 (ACHN renal) was 15.6 µM. It also gave a TGI (ACHN renal) greater than 100 µM, a GI50 (OVCAR-8 ovarian) of 24.2 µM and a TGI (OVCAR-8 ovarian) greater than 100 µM. For the same compound, the GI50 (COLO 205 colon) was 4.04 µM, the TGI (COLO 205 colon) was greater than 100 µM and the GI50 (TK-10 renal) was 30.7 µM. The TGI (TK-10 renal) was 92 µM, the GI50 (SF-295 CNS) was 23.9 µM and the TGI (SF-295 CNS) was 48.2 µM. It also gave a GI50 (MCF7 breast) of 4.2 µM, a TGI (MCF7 breast) greater than 100 µM and a GI50 (BT-549 breast) of 7.63 µM. It also gave a TGI (BT-549 breast) of 41.7 µM, a GI50 (CAKI-1 renal) of 17.6 µM and a TGI (CAKI-1 renal) of 36.1 µM.
